Data reported in ChEMBL document CHEMBL4219213, “The design, synthesis and structure-activity relationships associated with C28 amine-based betulinic acid derivatives as inhibitors of HIV-1 maturation” (Bioorg Med Chem Lett, 2018).
pEC50: −log10 of the molar value.

How the values were obtained:
Rattus norvegicus = assay: Toxicity in Sprague-Dawley rat at 5 to 124 mg/kg, po via gavage up to 24 hrs by LC-MS/MS analysis; assay type: organism-based; details: in vivo
in vitro = details: human, MT2 cells
Description: Cytotoxicity against human MT2 cells

cells = details: Human immunodeficiency virus 1, subtype B NL4-3, MT2
in vivo [1] = details: Sprague-Dawley, rat, po, 5 mg/kg
in vivo [2] = details: Sprague-Dawley, rat, po, 5 mg/kg; remark: listed apart in the source

With `C=C(C)[C@@H]1CC[C@]2(CNCCCN3CCS(=O)(=O)CC3)CC[C@]3(C)[C@H](CC[C@@H]4[C@@]5(C)CC=C(c6ccc(C(=O)O)cc6)C(C)(C)[C@@H]5CC[C@]43C)[C@@H]12` the Activity (Rattus norvegicus) was “Non-Toxic”, the CC50 (in vitro) was 3500 nM and the pEC50 (cells) was 7.70. For the same compound, the AUC(0-t) at 6 h (in vivo [1]) was 1.71 µM·h and the AUC(0-t) at 24 h (in vivo [2]) was 2.81 µM·h.
